Several values for one entry are separate records, joined by “and”; a condition that tells them apart may be missing. Equal entries are not always repeated.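 Cultured in 96-well plates, cells were exposed to test compound for 48 hours across five concentrations. GI50 marks 50% less growth. TGI: concentration producing complete growth inhibition.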 Where a SMILES comes first, the peptide text is derived from it.
System: MDA-MB-468 breast
Test: DTP human tumour cell line panel, 48 h

SMILES	GI50	TGI
CCCCCCC(O)(c1ccc(F)cc1)C(CN1CCOCC1)c1ccccc1 (stereo not given)	4930 nM	18600 nM
CCCCCCCCCCCCCCCC(=O)Nc1ccn([C@@H]2O[C@H](CO)[C@@H](O)[C@@H]2C#N)c(=O)n1	48700 nM	> 100000 nM
CCCCCCCCn1ccc2cc(NC(=O)Cn3cc(CN4CCN(CC)CC4)nn3)ccc21	1530 nM	3040 nM
O=C(Nc1ccccc1C(=O)N/N=C(\c1ccccc1)c1ccccn1)c1ccccc1	338 nM	2380 nM
Fc1ccc(-c2ncn(C3CCNCC3)c2-c2ccnc(Oc3cccc(C(F)(F)F)c3)n2)cc1	1570 nM	5310 nM
CCOc1ccccc1C(=O)/C=C/c1cc2ccccc2[nH]c1=O	162 nM	1630 nM
O=S(=O)(Nc1ccc2ccccc2c1)N1CCCCC1	2810 nM	10300 nM
COc1ccc(CCc2nc3cc(-c4c(C)noc4C)ccc3n2CCN2CCOCC2)cc1	8780 nM	> 100000 nM
COC(=O)N[C@H]1C=C[C@@H]2/C=C(C)/C=C/[C@@H](C)[C@H]([C@H](C)[C@H](O)[C@@H](C)NC(C)=O)OC(=O)/C=C/C=C(C)\C=C\[C@]2(C)C1	4.32 nM and 4.53 nM	> 45300 nM
Cn1cc(C2=C(n3ccc4ccccc43)C(=O)NC2=O)c2ccccc21	> 25000 nM	> 25000 nM
O=S(=O)(Nc1cc(F)cc(F)c1)c1ccc(-c2cnc(C3CC3)o2)cc1	1370 nM	17900 nM
NS(=O)(=O)c1ccc(N=Nc2c(O)[nH]c3ccc(Cl)cc23)cc1	> 20100 nM	> 25000 nM
COC(=O)[C@]12CC[C@@H](C)[C@H](C)[C@@H]1C1=CC[C@@H]3[C@@]4(C)C[C@@H](OC(C)=O)[C@H](O)[C@@](C)(CO)[C@@H]4[C@H](O)C[C@@]3(C)[C@]1(C)CC2	8550 nM	22800 nM
C#CCNCCCN1C(=O)c2ccc3c4c(ccc(c24)C1=O)C(=O)N(CCCNCC#C)C3=O	129 nM	308 nM
COc1ccc(/C=C/C(=O)Nc2cc(/C=C\c3cc(OC)c(OC)c(OC)c3)cc(OC)c2OC)cc1OC	1740 nM	7520 nM
O=Cc1cn(Cc2ccccc2)c2ccccc12	174 nM	469 nM
CCCCCN1C(=O)/C(=c2\sc3n(c2=O)C2C(NN=3)N(CC)C(=O)N2CC)c2ccccc21 (stereo not given)	369 nM	2000 nM
COc1ccc2nc3c(n2c1)C(=O)C(=O)c1ccccc1-3	2180 nM	5630 nM

SMILES	GI50	TGI
O=C1C=CC2(NN=C(c3ccccc3)N2c2ccccc2)c2cccc(O)c21 (stereo not given)	1920 nM	9090 nM
Cc1cccc(-n2cnc3cc(C(=O)N4CCCCC4)ccc32)c1	18600 nM	> 100000 nM
C=C(C)[C@@H]1CC[C@]2(C(N)=O)CC[C@]3(C)[C@H](CC[C@@H]4[C@@]5(C)C/C(=C/c6cccnc6)C(=O)C(C)(C)[C@@H]5CC[C@]43C)[C@@H]12	3500 nM	40500 nM
O=C1NC(=NCc2c(Cl)cccc2Cl)S/C1=C\c1ccc2ncccc2c1	6240 nM	> 25000 nM
C#CC#CC#CC#CC#CC#CC#CC#CC[C@@H]1OC[C@H](COC(=O)O[C@@H](C(=O)O[C@H]2C[C@@]3(O)[C@@H](OC(=O)c4ccccc4)[C@@H]4[C@]5(OC(C)=O)CO[C@@H]5C[C@H](O)[C@@]4(C)C(=O)[C@H](OC(C)=O)C(=C2C)C3(C)C)[C@@H](NC(=O)c2ccccc2)c2ccccc2)O1	439 nM	1590 nM
CC(=O)/C(=C\c1c(-c2ccccc2)[nH]c2ccccc12)S(C)(=O)=O	1790 nM	8100 nM
CC(C)(C(=O)NCC(F)(F)C(F)(F)F)C(=O)N[C@@H]1C(=O)Nc2ccccc2-c2ccccc21	12700 nM	73000 nM
CCNC(=O)N1CCc2c(Cl)c3c(c(OC)c2[C@@H]1[C@H]1OCc2c1ccc(OC)c2OC)OCCO3	2650 nM	> 100000 nM
COc1cc2nccc(Oc3ccc(NC(=O)C4(C(=O)Nc5ccc(F)cc5)CC4)cc3)c2cc1OC(=O)c1ccc(N)cc1	3990 nM	> 100000 nM
COc1ccc(C(O)c2cc3c(N)c(C(=O)Nc4ccccc4)sc3nc2C)cc1 (stereo not given)	29.8 nM	> 100000 nM
Cn1cc(-c2nc(N)nnc2-c2c[nH]c3ccccc23)c2cc(Br)ccc21	342 nM	2040 nM
Cn1cc(-c2csc(-c3c[nH]c4ccccc34)n2)c2cccnc21	915 nM	4180 nM
COc1cc(-c2cc(-c3nc4ccc(F)cc4[nH]3)[nH]n2)cc(OC)c1OC	1560 nM	9670 nM
C#CC(F)(F)[C@]1(O)CC[C@H]2[C@@H]3CCC4=CC(=O)CCC4=C3[C@@H](c3ccc(C4CC4)cc3)C[C@@]21C	121 nM and 265 nM	438 nM and 1520 nM
CCNCCNc1cc(-c2ccc(Cl)c(Cl)c2)c(C#N)c2nc3ccccc3n12	1140 nM	2520 nM
COc1ccc(/C=C(/C(=O)N2CCCCC2)c2cc(OC)c(OC)c(OC)c2)cc1	498 nM	> 100000 nM
CCC(C)C1NC(=O)C(CCCCN)NC(=O)C(CCCCN)NC(=O)C(CC(C)C)NC(=O)C(CCCCN)NC(=O)C(C(C)CC)NC(=O)C(C(C)C)NC(=O)C(C(C)CC)NC(=O)C(CCCCN)NC(=O)C(CCCCN)NC(=O)C(C)NC(=O)C(CCCCN)NC(=O)C(CC(C)C)NC1=O (stereo not given) (cyclo(AKKIVIKLKKILK); configuration not given here)	564 nM	2300 nM
